# Measurements from ChEMBL document CHEMBL3885881, “DrugMatrix”.
# Species on record: Rattus norvegicus
# Experiment: DrugMatrix - Regimen: Daily Repeat
# Type: toxicity, organism-based, Sprague-Dawley
# Set-up: regimen Daily Repeat, gender Male, age 6-8 weeks
# Details: in vivo, po, route oral GAVAGE, vehicle .5 % CMC; for ABSOLUTE BASOPHIL / ABSOLUTE EOSINOPHIL / ABSOLUTE LYMPHOCYTE / ABSOLUTE MONOCYTE / ABSOLUTE SEGMENTED NEUTROPHIL / BASOPHIL / EOSINOPHIL / ERYTHROCYTE COUNT / HEMATOCRIT / HEMOGLOBIN / LEUKOCYTE COUNT / LYMPHOCYTE / MEAN CORPUSCULAR HEMOGLOBIN / MEAN CORPUSCULAR HEMOGLOBIN CONCENTRATION / MEAN CORPUSCULAR VOLUME / MONOCYTE / NEUTROPHIL / NUCLEATED RED BLOOD CELLS / PLATELET COUNT: tissue Blood; for ALANINE AMINOTRANSFERASE / ALBUMIN / ALKALINE PHOSPHATASE / ASPARTATE AMINOTRANSFERASE / BLOOD UREA NITROGEN / CARBON DIOXIDE / CHLORIDE / CHOLESTEROL / CREATINE PHOSPHOKINASE / CREATININE / GLUCOSE / LACTATE DEHYDROGENASE / LIPASE / PHOSPHORUS / POTASSIUM / SODIUM / TOTAL BILIRUBIN / TOTAL PROTEIN: tissue Plasma
# [1] = 0 mg/kg, 72 h, dose level Control, time 3 day
# [2] = 0 mg/kg, 120 h, dose level Control, time 5 day
# [3] = 25 mg/kg, 72 h, dose level Low, time 3 day
structure (smiles),measurement,setting,value
COc1cc(/C=C/C(=O)O)ccc1O [FERULATE],ABSOLUTE BASOPHIL,[1],0 CELLS/uL
same,ABSOLUTE EOSINOPHIL,[1],284.5 CELLS/uL
same,ABSOLUTE LYMPHOCYTE,[1],11670.5 CELLS/uL
same,ABSOLUTE MONOCYTE,[1],420.83 CELLS/uL
same,ABSOLUTE SEGMENTED NEUTROPHIL,[1],1024.17 CELLS/uL
same,BASOPHIL,[1],0%
same,EOSINOPHIL,[1],1.67%
same,ERYTHROCYTE COUNT,[1],5.38 x10E6/uL
same,HEMATOCRIT,[1],34.05%
same,HEMOGLOBIN,[1],12.75 G/DL
same,LEUKOCYTE COUNT,[1],13.4 x10E3/uL
same,LYMPHOCYTE,[1],88.33%
same,MEAN CORPUSCULAR HEMOGLOBIN,[1],23.73 pg
same,MEAN CORPUSCULAR HEMOGLOBIN CONCENTRATION,[1],37.43 G/DL
same,MEAN CORPUSCULAR VOLUME,[1],63.4 fL
same,MONOCYTE,[1],2.83%
same,NEUTROPHIL,[1],7.17%
same,NUCLEATED RED BLOOD CELLS,[1],0 /100WBC
same,PLATELET COUNT,[1],1184.67 x10E3/uL
same,ALANINE AMINOTRANSFERASE,[1],45.33 u/L
same,ALBUMIN,[1],4.3 G/DL
same,ALKALINE PHOSPHATASE,[1],388.83 u/L
same,ASPARTATE AMINOTRANSFERASE,[1],84.83 u/L
same,BLOOD UREA NITROGEN,[1],15.5 mg/dL
same,CARBON DIOXIDE,[1],27 mmol/L
same,CHLORIDE,[1],101.8 MEQ/L
same,CHOLESTEROL,[1],76.67 mg/dL
same,CREATINE PHOSPHOKINASE,[1],301 u/L
same,CREATININE,[1],0.21 mg/dL
same,GLUCOSE,[1],168.83 mg/dL
same,LACTATE DEHYDROGENASE,[1],294.83 u/L
same,LIPASE,[1],9.8 u/L
same,PHOSPHORUS,[1],13.25 mg/dL
same,POTASSIUM,[1],6.41 MEQ/L
same,SODIUM,[1],143.72 MEQ/L
same,TOTAL BILIRUBIN,[1],0.22 mg/dL
same,TOTAL PROTEIN,[1],5.98 G/DL
same,ABSOLUTE BASOPHIL,[2],0 CELLS/uL
same,ABSOLUTE EOSINOPHIL,[2],190.67 CELLS/uL
same,ABSOLUTE LYMPHOCYTE,[2],12549.5 CELLS/uL
same,ABSOLUTE MONOCYTE,[2],276 CELLS/uL
same,ABSOLUTE SEGMENTED NEUTROPHIL,[2],1067.17 CELLS/uL
same,BASOPHIL,[2],0%
same,EOSINOPHIL,[2],1.33%
same,ERYTHROCYTE COUNT,[2],5.66 x10E6/uL
same,HEMATOCRIT,[2],35.92%
same,HEMOGLOBIN,[2],13.65 G/DL
same,LEUKOCYTE COUNT,[2],14.08 x10E3/uL
same,LYMPHOCYTE,[2],89%
same,MEAN CORPUSCULAR HEMOGLOBIN,[2],24.12 pg
same,MEAN CORPUSCULAR HEMOGLOBIN CONCENTRATION,[2],38.03 G/DL
same,MEAN CORPUSCULAR VOLUME,[2],63.47 fL
same,MONOCYTE,[2],2%
same,NEUTROPHIL,[2],7.67%
same,NUCLEATED RED BLOOD CELLS,[2],0.17 /100WBC
same,PLATELET COUNT,[2],1251.67 x10E3/uL
same,ALANINE AMINOTRANSFERASE,[2],43.33 u/L
same,ALBUMIN,[2],4.22 G/DL
same,ALKALINE PHOSPHATASE,[2],365.67 u/L
same,ASPARTATE AMINOTRANSFERASE,[2],83.67 u/L
same,BLOOD UREA NITROGEN,[2],18.17 mg/dL
same,CARBON DIOXIDE,[2],28.67 mmol/L
same,CHLORIDE,[2],103.5 MEQ/L
same,CHOLESTEROL,[2],71.5 mg/dL
same,CREATINE PHOSPHOKINASE,[2],284.5 u/L
same,CREATININE,[2],0.21 mg/dL
same,GLUCOSE,[2],161.67 mg/dL
same,LACTATE DEHYDROGENASE,[2],259.67 u/L
same,LIPASE,[2],9.5 u/L
same,PHOSPHORUS,[2],12.45 mg/dL
same,POTASSIUM,[2],6.49 MEQ/L
same,SODIUM,[2],144.25 MEQ/L
same,TOTAL BILIRUBIN,[2],0.2 mg/dL
same,TOTAL PROTEIN,[2],6.1 G/DL
same,ABSOLUTE BASOPHIL,[3],0 CELLS/uL
same,ABSOLUTE EOSINOPHIL,[3],47 CELLS/uL
same,ABSOLUTE LYMPHOCYTE,[3],6476.33 CELLS/uL
same,ABSOLUTE MONOCYTE,[3],108 CELLS/uL
same,ABSOLUTE SEGMENTED NEUTROPHIL,[3],402 CELLS/uL
same,BASOPHIL,[3],0%
same,EOSINOPHIL,[3],1%
same,ERYTHROCYTE COUNT,[3],5.55 x10E6/uL
same,HEMATOCRIT,[3],35.4%
same,HEMOGLOBIN,[3],13.17 G/DL
same,LEUKOCYTE COUNT,[3],7.03 x10E3/uL
same,LYMPHOCYTE,[3],91.67%
same,MEAN CORPUSCULAR HEMOGLOBIN,[3],23.73 pg
same,MEAN CORPUSCULAR HEMOGLOBIN CONCENTRATION,[3],37.2 G/DL
same,MEAN CORPUSCULAR VOLUME,[3],63.8 fL
same,MONOCYTE,[3],1.67%
same,NEUTROPHIL,[3],5.67%
same,NUCLEATED RED BLOOD CELLS,[3],0 /100WBC
same,PLATELET COUNT,[3],1224.33 x10E3/uL
same,ALANINE AMINOTRANSFERASE,[3],45.33 u/L
same,ALBUMIN,[3],4.27 G/DL
same,ALKALINE PHOSPHATASE,[3],484.33 u/L
same,ASPARTATE AMINOTRANSFERASE,[3],84.67 u/L
same,BLOOD UREA NITROGEN,[3],13.67 mg/dL
same,CARBON DIOXIDE,[3],28 mmol/L
same,CHLORIDE,[3],103 MEQ/L
same,CHOLESTEROL,[3],71 mg/dL
same,CREATINE PHOSPHOKINASE,[3],192.33 u/L
same,CREATININE,[3],0.18 mg/dL
same,GLUCOSE,[3],148.33 mg/dL
same,LACTATE DEHYDROGENASE,[3],120.67 u/L
same,LIPASE,[3],9.33 u/L
same,PHOSPHORUS,[3],12.27 mg/dL
same,POTASSIUM,[3],6.28 MEQ/L
same,SODIUM,[3],147.37 MEQ/L
same,TOTAL BILIRUBIN,[3],0.2 mg/dL
